64 compounds from patent US20230109839A1, “THERAPEUTIC AGENT FOR TAUOPATHIES” (SUMITOMO PHARMA CO., LTD., priority 2020, published 2023) can be followed below.

For the first experiment, the target named is T1, human Nav1.1 (Homo sapiens, UniProt P35498).
T1 construct: host or cells: HEK293
Nature of the experiment: Amplification of Nav1.1-derived voltage-gated sodium current (Nav1.1 current), automated patch clamp (Test 1). Type of experiment: cell-based. The note with it: Concentration for evaluation 1 μM; HEK293 cell line stably expressing human Nav1.1. In short, it runs like this: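 HEK293 cells stably expressing human Nav1.1, restricted to cells with >500 pA current, were recorded by automated voltage-clamp patch clamp with a ramp voltage stimulus. Compounds were applied in HEPES-buffered extracellular solution with 1% DMSO. Amplification (%) = 100×(peak or AUC after/before compound)−100.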
On the technique in general: The patch-clamp technique gives a direct electrical read-out from membranes.
As for `O=C(Cn1nc(-c2cc(Cl)cs2)ccc1=O)Nc1ccn2ccnc2c1` [Example 467], the “Nav1.1 current amplification rate (%)” value was found to be 80%.
Take `Cc1cc(NC(=O)Cn2ncc3ncc(N(C)C4CC4)nc32)cc2ncnn12` [Example 704]: the “Nav1.1 current amplification rate (%)” value is listed as 109%.
Same read-out and setting: with `CC1CC=C(c2ccc(=O)n(CC(=O)Nc3ccn4nncc4c3)n2)CC1` (stereo not shown) [Example 342] the figure was 109%; with `CN(c1ncc2cnn(CC(=O)Nc3ccn4ncnc4c3)c2n1)C1CC(C)(C)C1` [Example 632], 164%; with `CN(c1cnc2cnn(CC(=O)Nc3ccc4cnncc4c3)c2n1)C1CC1` [Example 733], 76%.
Consider `CC1CC=C(c2ccc(=O)n(CC(=O)Nc3ccn4ncnc4c3)n2)CC1` (stereo not shown) [Example 330], for which the “Nav1.1 current amplification rate (%)” value is 191%.
Still for that read-out and setting: then `CC1CC=C(c2ccc(=O)n(CC(=O)N3CCc4c3ccnc4C3=CCN(C)C3)n2)CC1` (stereo not shown) [Example 283], with 15%.
As to `CN(c1cnc2cnn(CC(=O)Nc3ccc4ncnn4c3)c2n1)C1CC2(CC2)C1` [Example 666], the “Nav1.1 current amplification rate (%)” value worked out at 64%.
Same read-out and setting: with `O=C(Cn1ncc2ncc(N3CCC4(CC4)C(F)(F)C3)nc21)Nc1ccc2ncnn2c1` [Example 659] the figure was 25%; with `CC1CC=C(c2ccc(=O)n(CC(=O)N3CCc4c(CNC5CCOCC5)cccc43)n2)CC1` (stereo not shown) [Example 317], 41%.
Consider `CC1CC=C(c2ccc(=O)n(CC(=O)Nc3ccc4ncncc4c3)n2)CC1` (stereo not shown) [Example 355], for which the “Nav1.1 current amplification rate (%)” value was 130%.
The same measure, in the same setting: then `CC1CC=C(c2ccc(=O)n(CC(=O)Nc3ccnc(C#N)c3)n2)CC1` (stereo not shown) [Example 362], with 133%; and `CC1CC=C(c2ccc(=O)n(CC(=O)Nc3ccc4cnnn4c3)n2)CC1` (stereo not shown) [Example 345], with 232%; and `O=C(Cn1ncc2cnc(N3CCC(F)(F)CC3)nc21)Nc1ccn2ncnc2c1` [Example 768], with 18%.
The same measure, in the same setting: then `CC1CC=C(c2ccc(=O)n(CC(=O)N3CCc4c(CN(C)C5COC5)cccc43)n2)CC1` (stereo not shown) [Example 276], with 207%; and `CC1CC=C(c2ccc(=O)n(CC(=O)N3CC=C(c4ccncc4)C3)n2)CC1` (stereo not shown) [Example 387], with 19%; and `CC1CC=C(c2ccc(=O)n(CC(=O)Nc3ccc4cncn4c3)n2)CC1` (stereo not shown) [Example 344], with 69%.
As for `CO[C@H]1CCN(Cc2cccc3c2CCN3C(=O)Cn2nc(C3=CCC(C)CC3)ccc2=O)C1` (stereo partly shown) [Example 272], the “Nav1.1 current amplification rate (%)” value is 127%.
Regarding `O=C(Cn1ncc2ncc(C3=CCC4(CC3)CC4)nc21)Nc1ccc2ncnn2c1` [Example 656], the “Nav1.1 current amplification rate (%)” value turned out to be 70%.
As to `CN(c1cnc2cnn(CC(=O)N3CCc4c(-c5ccnnc5)cccc43)c2n1)C1CC1` [Example 699], the “Nav1.1 current amplification rate (%)” value was determined as 366%.
The same measure, in the same setting: then `CC1CC=C(c2ccc(=O)n(CC(=O)N3CCc4c(Cn5ccnc5)cccc43)n2)CC1` (stereo not shown) [Example 286], with 848%.

Still in this experiment, the particulars now being: Concentration for evaluation 3 μM; HEK293 cell line stably expressing human Nav1.1.
With `CC1(C)CC=C(c2ccc(=O)n(CC(=O)N3CCc4c(C5CN(C(=O)CO)C5)cccc43)n2)CC1` [Example 437], the “Nav1.1 current amplification rate (%)” value stood at 582%.
In the case of `CC1CC=C(c2ccc(=O)n(CC(=O)N3CC=C(c4ccccc4)CC3)n2)CC1` (stereo not shown) [Example 257], the “Nav1.1 current amplification rate (%)” value turned out to be 45%.
As for `CC1CC=C(c2ccc(=O)n(CC(=O)N3CCc4c(C5CN(C(=O)CO)C5)cccc43)n2)CC1` (stereo not shown) [Example 321], the “Nav1.1 current amplification rate (%)” value is on record as 478%.

Staying with this experiment, now noted: Concentration for evaluation 10 μM; HEK293 cell line stably expressing human Nav1.1.
`CC1CC=C(c2ccc(=O)n(CC(=O)N3CC4(C3)CN(c3cccnc3)C4)n2)CC1` (racemic) [Example 424]: the “Nav1.1 current amplification rate (%)” value worked out at 40%.
Same read-out and setting: then `CC1CC=C(c2ccc(=O)n(CC(=O)N3CCN(Cc4cccnc4)CC3)n2)CC1` (stereo not shown) [Example 393], with 19%; and `CC1CCN(c2ccc(=O)n(CC(=O)Nc3ccc4ncoc4c3)n2)CC1` [Example 73], with 92%; and `COc1cncc(NC(=O)Cn2nc(N3CCC(C)CC3)ccc2=O)c1` [Example 64], with 11%.
As to `O=C(Cn1nc(C2=CCC(C(F)(F)F)CC2)ccc1=O)N1CCN(c2cncc(F)c2)CC1` (stereo not shown) [Example 487], the “Nav1.1 current amplification rate (%)” value worked out at 190%.
The same measure, in the same setting: with `CC1CC=C(c2ccc(=O)n(CC(=O)N3CCN(c4cnn(C)c4)CC3)n2)CC1` (stereo not shown) [Example 415] the figure was 93%; with `N#Cc1ccc(NC(=O)Cn2nc(N3CCCC3)ccc2=O)cc1` [Example 4], 3%; with `N#Cc1ccc(NC(=O)Cn2nc(N3CCC4(CC3)COC4)ccc2=O)cc1` [Example 27], 5%.
Still for that read-out and setting: then `N#Cc1ccc(NC(=O)Cn2nc(N3CCCC(O)C3)ccc2=O)cc1` (stereo not shown) [Example 7], with 3%.
On the same count and under the same terms, then `Cc1cc(NC(=O)Cn2nc(N3CCC(C)CC3)ccc2=O)cc2ncoc12` [Example 96], with 105%; and `N#Cc1ccc(NC(=O)Cn2nc(N3CCC4(CC3)CC4)ccc2=O)cc1` [Example 17], with 212%.
For `CC1CCN(c2ccc(=O)n(CC(=O)Nc3cccc(C#N)c3)n2)CC1` [Example 55], the “Nav1.1 current amplification rate (%)” value worked out at 111%.
As to `CC1CC=C(c2ccc(=O)n(CC(=O)N3CCC(Cc4ccccc4)C3)n2)CC1` (stereo not shown) [Example 389], the “Nav1.1 current amplification rate (%)” value stood at 53%.
For `CC1CC=C(c2ccc(=O)n(CC(=O)Nc3cc4nccn4cc3C#N)n2)CC1` (stereo not shown) [Example 359], the “Nav1.1 current amplification rate (%)” value is 26%.
On the same count and under the same terms, with `COc1nc2cc(NC(=O)Cn3nc(C4=CCC(C)CC4)ccc3=O)ccc2o1` (stereo not shown) [Example 239] the figure was 310%.
On the same count and under the same terms, then `N#Cc1ccc(NC(=O)Cn2nc(N3CCC4(CCCO4)CC3)ccc2=O)cc1` [Example 29], with 20%; and `COc1cc(-c2cc(Cl)cs2)nn(CC(=O)Nc2ccn3ccnc3c2)c1=O` [Example 466], with 233%; and `COCOc1cccc2c1CCN2C(=O)Cn1nc(C2=CCC(C)(C)CC2)ccc1=O` [Example 435], with 262%.
On the same count and under the same terms, with `COc1cc(=O)n(CC(=O)Nc2ccc3ocnc3c2)nc1C1=CCC(C)(C)CC1` [Example 451] the figure was 365%.

The same experiment, now with this note: Concentration for evaluation 50 μM; HEK293 cell line stably expressing human Nav1.1.
For `Cc1ccc(F)c(Nc2ncc3cnn(CC(=O)Nc4ccn5ncnc5c4)c3n2)c1` [Example 776], the “Nav1.1 current amplification rate (%)” value was determined as 17%.
On the same count and under the same terms, with `Cc1c(NC(=O)Cn2nc(C3=CCC(C)CC3)ccc2=O)ccc2ncnn12` (stereo not shown) [Example 353] the figure was 32%.
With `CC1CC=C(c2ccc(=O)n(CC(=O)Nc3ccc4ncccc4c3)n2)CC1` (stereo not shown) [Example 357], the “Nav1.1 current amplification rate (%)” value worked out at 43%.
Still for that read-out and setting: then `Cc1cccc(F)c1Nc1ncc2cnn(CC(=O)Nc3ccn4ncnc4c3)c2n1` [Example 775], with 12%; and `CC(C)N(C)c1cnc2cnn(CC(=O)Nc3ccc4ncnn4c3)c2n1` [Example 665], with 63%.

Staying with this experiment, now noted: HEK293, Concentration for evaluation 1 μM; HEK293 cell line stably expressing human Nav1.1; read-out: Nav1.1 current amplification rate (%).
As to `O=C(Cn1ncc2ncc(N3CCC4(CCC4)CC3)nc21)N1CCN(c2cccnc2)CC1` [Example 736], the activation at 1 µM worked out at 13%.
Regarding `CC1(C)CC=C(c2cnc3cnn(CC(=O)Nc4ccn5ccnc5c4)c3n2)CC1` [Example 737], the activation at 1 µM was determined as 249%.
As for `CN(c1cnc2cnn(CC(=O)Nc3ccc4ncncc4c3)c2n1)C1CC2(CC2)C1` [Example 759], the activation at 1 µM was 57%.
For `CC1CC=C(c2cnc3cnn(CC(=O)Nc4ccc5ocnc5c4)c3n2)CC1` (stereo not shown) [Example 735], the activation at 1 µM amounted to 321%.

Staying with this experiment, now noted: HEK293, Concentration for evaluation 10 μM; HEK293 cell line stably expressing human Nav1.1; read-out: Nav1.1 current amplification rate (%).
In the case of `N#Cc1ccc(NC(=O)Cn2nc(N3CCCCC3)ccc2=O)cn1` [Example 110], the activation at 10 µM turned out to be 12%.
On the same count and under the same terms, then `N#Cc1cc(NC(=O)Cn2nc(N3CCCCC3)ccc2=O)ccn1` [Example 116], with 12%.

Still in this experiment, the particulars now being: HEK293, concentration for evaluation 1 μM; HEK293 stably expressing human Nav1.1; read-out: Nav1.1 current amplification rate (%).
Regarding `O=C(Cn1ncc2cnc(N3CCC4(CCC4)CC3)nc21)NC1=CC2N=CN=CC2C=C1` (stereo not shown) [Example 885], the activation at 1 µM was determined as 209%.
Turning to `CC1CCN(c2ncc3cnn(CC(=O)Nc4cnc(C#N)cn4)c3n2)CC1(F)F` (stereo not shown) [Example 847], the activation at 1 µM worked out at 132%.
`CC1CC=C(c2ncc3cnn(CC(=O)NC4=CC5N=COC5C=C4)c3n2)CC1` (stereo not shown) [Example 833]: the activation at 1 µM was found to be 283%.

The experiment is the same for the next values; noted with them: concentration for evaluation 1 μM; HEK293 stably expressing human Nav1.1.
Consider `CN(CC1CCC1)c1ccc2cnn(CC(=O)Nc3ccc4ncnn4c3)c2n1` [Example 873], for which the “Nav1.1 current amplification rate (%)” value is given as 89%.
Same read-out and setting: then `O=C(Cn1ncc2ccc(C3=CCC(F)(F)CC3)nc21)Nc1ccn2ncnc2c1` [Example 860], with 50%; and `CN(c1ncc2cnn(CC(=O)Nc3ccn4ncnc4c3)c2n1)C1CCCC1(F)F` (stereo not shown) [Example 801], with 122%; and `O=C(Cn1ncc2cnc(N3CCC4(CC4)C(F)(F)C3)nc21)Nc1cccnc1` [Example 826], with 31%.
On the same count and under the same terms, then `CC1(C)CCN(c2ccc3cnn(CC(=O)Nc4ccn5ncnc5c4)c3n2)C1` [Example 857], with 18%.
Take `CN(c1ccc2cnn(CC(=O)Nc3ccc4ncnn4c3)c2n1)C1CCCC1` [Example 875]: the “Nav1.1 current amplification rate (%)” value is 43%.

The same experiment, now with this note: concentration for evaluation 50 μM; HEK293 stably expressing human Nav1.1.
With `CC1CCN(c2ccc3cnn(CC(=O)Nc4ccc5nccn5n4)c3n2)CC1` [Example 880], the “Nav1.1 current amplification rate (%)” value was 42%.
